Test system: healthy participants
Experiment: N-back sequential letter task
Format: in vivo, human
Conditions: for N-Back 0-back Sensitivity (d’) / N-Back 1-back Sensitivity / N-Back 2-back Sensitivity / N-Back 3-back Sensitivity: mean (SD)
Excerpt: A visually presented N-back sequential letter task was used to assess working memory performance, wherein participants saw a string of consonants (except L, W, and Y), presented in upper case letters, one every 3 s. Four conditions were presented: 0-back, 1-back, 2-back, and 3-back. The main outcome variable of the n-back task was sensitivity (d’) for each of the four conditions, calculated as: d’ = Z (Hit)– Z (False alarms).
Cognitive data: In this exploratory analysis, each outcome variable of the cognitive data was examined in a mixed model analysis of variance with one between-subjects factor of VU319 dose (0, 60, 120, 240, 400, 600 mg) and a within-subjects factor of testing session (pre-dose vs. post-dost administration). Post-hoc analysis compared each of the VU319 dose cohorts against the placebo group. Because the participants were healthy adults with normal cognitive function, we considered effects between no reductions in function to small improvement (d = 0.0–0.20) to be a positive result. For the food effect study, only the participants who received VU319 were examined due to the disproportionately small placebo group (n = 2). A within-subjects ANOVA including food condition (fasted/fed) and testing session (pre-dose vs. post-dose administration) was performed on each outcome variable.
A visually presented N-back sequential letter task (Jonides et al., 1997; Saykin et al., 2004) was used to assess working memory performance, wherein participants saw a string of consonants (except L, W, and Y), presented in upper case letters, one every 3 s. Four conditions were presented: 0-back, 1-back, 2-back, and 3-back. The 0-back control condition required participants to decide if the current letter matched a single target letter that was specified before the epoch began. In each of the 1-back, 2-back, and 3-back conditions, the task is to decide whether the letter currently presented matches the letter that has been presented 1, 2, or 3 back in the sequence. The 0-, 1-, 2-, and 3-back conditions were performed in two blocks of 27 trials each for a total of 216 trials. The blocks were presented in a counterbalanced order such that the same condition was not repeated two times in a row. The main outcome variable of the n-back task was sensitivity (d’) for each of the four conditions, calculated as: d’ = Z (Hit) – Z (False alarms).

[1] = Food effect study 120 mg, Fasting, Post-Drug
[2] = Food effect study 120 mg, Fasting, Pre-Drug
[3] = Food effect study 120 mg, Fed, Post-Drug
[4] = Food effect study 120 mg, Fed, Pre-Drug

For Cn1cc2c(-c3cc(F)c(CN4Cc5ncccc5C4=O)c(F)c3)cccc2n1 [VU319], the “N-back 2-back d', vs placebo, effect size d” value (400 mg, p = 0.12) was 0.87, the “N-back 1-back d', vs placebo, effect size d” value (600 mg, p = 0.12) was 0.86 and the “N-Back 0-back Sensitivity (d’)” value [1] was 5.15 (1.1). The “N-Back 1-back Sensitivity” value [1] was 3.38 (2.09), the “N-Back 2-back Sensitivity” value [1] was 2.3 (1.64) and the “N-Back 3-back Sensitivity” value [1] was 1.96 (1.4). For the same molecule, the “N-Back 0-back Sensitivity (d’)” value [2] was 4.64 (1.22), the “N-Back 1-back Sensitivity” value [2] was 5.01 (0.93) and the “N-Back 2-back Sensitivity” value [2] was 3.79 (1.18). For the same molecule, the “N-Back 3-back Sensitivity” value [2] was 2.55 (1.42), the “N-Back 0-back Sensitivity (d’)” value [3] was 4.62 (1.32) and the “N-Back 1-back Sensitivity” value [3] was 4.13 (1.6). For the same molecule, the “N-Back 2-back Sensitivity” value [3] was 2.89 (1.42), the “N-Back 3-back Sensitivity” value [3] was 2.53 (0.97) and the “N-Back 0-back Sensitivity (d’)” value [4] was 4.67 (1.4). For the same molecule, the “N-Back 1-back Sensitivity” value [4] was 5.42 (0.99), the “N-Back 2-back Sensitivity” value [4] was 3.75 (1.21) and the “N-Back 3-back Sensitivity” value [4] was 2.29 (0.65). For the same molecule, the “N-Back 0-back Sensitivity (d’)” value (SAD study, 60 mg, Post-Drug) was 5.37 (1.26), the “N-Back 1-back Sensitivity” value (SAD study, 60 mg, Post-Drug) was 4.99 (1.48) and the “N-Back 2-back Sensitivity” value (SAD study, 60 mg, Post-Drug) was 3.12 (1.22). For the same molecule, the “N-Back 3-back Sensitivity” value (SAD study, 60 mg, Post-Drug) was 2.11 (0.36), the “N-Back 0-back Sensitivity (d’)” value (SAD study, 60 mg, Pre-Drug) was 5.64 (0.84) and the “N-Back 1-back Sensitivity” value (SAD study, 60 mg, Pre-Drug) was 5.01 (1.17). The “N-Back 2-back Sensitivity” value (SAD study, 60 mg, Pre-Drug) was 3.35 (0.91), the “N-Back 3-back Sensitivity” value (SAD study, 60 mg, Pre-Drug) was 2.65 (0.49) and the “N-Back 0-back Sensitivity (d’)” value (SAD study, 120 mg, Post-Drug) was 5.37 (1.26). For the same molecule, the “N-Back 1-back Sensitivity” value (SAD study, 120 mg, Post-Drug) was 4.46 (1.35), the “N-Back 2-back Sensitivity” value (SAD study, 120 mg, Post-Drug) was 3.25 (2.19) and the “N-Back 3-back Sensitivity” value (SAD study, 120 mg, Post-Drug) was 1.75 (1.14). For the same molecule, the “N-Back 0-back Sensitivity (d’)” value (SAD study, 120 mg, Pre-Drug) was 5.64 (0.84), the “N-Back 1-back Sensitivity” value (SAD study, 120 mg, Pre-Drug) was 4.91 (1.08) and the “N-Back 2-back Sensitivity” value (SAD study, 120 mg, Pre-Drug) was 3.28 (1.98). The “N-Back 3-back Sensitivity” value (SAD study, 120 mg, Pre-Drug) was 2.34 (1.12), the “N-Back 0-back Sensitivity (d’)” value (SAD study, 240 mg, Post-Drug) was 6.18 (0) and the “N-Back 1-back Sensitivity” value (SAD study, 240 mg, Post-Drug) was 4.32 (2.3). The “N-Back 2-back Sensitivity” value (SAD study, 240 mg, Post-Drug) was 3.42 (2.29), the “N-Back 3-back Sensitivity” value (SAD study, 240 mg, Post-Drug) was 1.66 (0.83) and the “N-Back 0-back Sensitivity (d’)” value (SAD study, 240 mg, Pre-Drug) was 6.18 (0). The “N-Back 1-back Sensitivity” value (SAD study, 240 mg, Pre-Drug) was 4.72 (2.02), the “N-Back 2-back Sensitivity” value (SAD study, 240 mg, Pre-Drug) was 3.77 (1.84) and the “N-Back 3-back Sensitivity” value (SAD study, 240 mg, Pre-Drug) was 2.37 (0.81). For the same molecule, the “N-Back 0-back Sensitivity (d’)” value (SAD study, 400 mg, Post-Drug) was 6.18 (0), the “N-Back 1-back Sensitivity” value (SAD study, 400 mg, Post-Drug) was 5.37 (1.26) and the “N-Back 2-back Sensitivity” value (SAD study, 400 mg, Post-Drug) was 3.6 (1.84). For the same molecule, the “N-Back 3-back Sensitivity” value (SAD study, 400 mg, Post-Drug) was 2.01 (0.74), the “N-Back 0-back Sensitivity (d’)” value (SAD study, 400 mg, Pre-Drug) was 6.18 (0) and the “N-Back 1-back Sensitivity” value (SAD study, 400 mg, Pre-Drug) was 5.64 (0.84). The “N-Back 2-back Sensitivity” value (SAD study, 400 mg, Pre-Drug) was 3.54 (1.69), the “N-Back 3-back Sensitivity” value (SAD study, 400 mg, Pre-Drug) was 2.34 (0.74) and the “N-Back 0-back Sensitivity (d’)” value (SAD study, 600 mg, Post-Drug) was 5.27 (1.43). For the same molecule, the “N-Back 1-back Sensitivity” value (SAD study, 600 mg, Post-Drug) was 5.09 (1.06), the “N-Back 2-back Sensitivity” value (SAD study, 600 mg, Post-Drug) was 4.43 (1.72) and the “N-Back 3-back Sensitivity” value (SAD study, 600 mg, Post-Drug) was 2.94 (1.3). For the same molecule, the “N-Back 0-back Sensitivity (d’)” value (SAD study, 600 mg, Pre-Drug) was 5.57 (0.95), the “N-Back 1-back Sensitivity” value (SAD study, 600 mg, Pre-Drug) was 5.07 (0.59) and the “N-Back 2-back Sensitivity” value (SAD study, 600 mg, Pre-Drug) was 4.31 (1.69). For the same molecule, the “N-Back 3-back Sensitivity” value (SAD study, 600 mg, Pre-Drug) was 3.3 (1.02), the “N-back d' score, effect of dose” value (SAD study, four conditions, all p > 0.2) was “did not show a significant effect of dose, nor dose by time” and the “N-back 2-back sensitivity, effect of time of testing, effect size d” value (food effect study, 120 mg, p = 0.004, not related to food condition) was 2.55. For the same molecule, the “N-back 1-back sensitivity, effect of time of testing, effect size d” value (food effect study, 120 mg, p = 0.015, not related to food condition) was 2.0.
